{
  "source": "patent US20190175557A1",
  "about": "“COMPOUNDS USEFUL FOR DECREASING INTERFERON LEVEL” (priority 2016, published 2019)",
  "key": {"[1]": {"test_system": "human Flu-activated primary PBMC", "test": "cells", "type": "cell-based", "settings": "read-out: EC50"}, "[2]": {"test_system": "Flu-stimulated pDC from wild type and H4R KO mice", "type": "cell-based, mouse", "settings": "CB 10 μM, overnight Influenza A"}, "[3]": {"test_system": "129S8 mice infected with Influenza A virus strain X31 (H3N2)", "settings": "mouse, in vivo"}, "[4]": {"test_system": "HIV-stimulated pDC", "test": "TRAIL relocalization to the membrane of HIV-stimulated pDC (3D microscopy)", "type": "cell-based, human", "description": "(§1) Cells were then incubated with anti-CXCR4 antibody (Biolegend, San Diego, Calif.) in saturation buffer PBS-BSA 0.5% for membrane staining or in permeabilizing buffer containing 1% saponin with monoclonal antibody anti-TRAIL (Biolegend, San Diego, Calif., USA). […] Nucleus was stained using DAPI (Molecular Probes, Paisley, UK). Slides were mounted with Fluoromount-G (eBioscience, CA, USA) and scanned with a Nikon Eclipse 90i Upright microscope (Nikon Instruments Europe, Badhoevedorp, The Netherlands) using a 100× Plan Apo VC piezo objective (NA 1.4) and Chroma bloc filters (ET-DAPI, ET-GFP) and were subsequently deconvoluted with a Meinel algorithm and 8 iterations and analyzed using Metamorph® (MDS Analytical Technologies, Winnersh, UK). TRAIL/DAPI/Overlay/Confocal plane: Representative 2D focal plan. Overlay with bright: Bright. Reconvolution overlays: 2D projections of the maximum intensity pixels along the Z-axis.\n7 pictures were taken from each slide for each Z section framing the nucleus. Quantification of the colocalization in the cytoplasm of purified pDC using Mander's Coefficient was obtained after analyze by JACoP pluging in ImageJ."}, "[5]": {"molecular_target": "T1, CXCR4 (Homo sapiens, UniProt P61073)", "T1 sequence (P61073 whole entry)": "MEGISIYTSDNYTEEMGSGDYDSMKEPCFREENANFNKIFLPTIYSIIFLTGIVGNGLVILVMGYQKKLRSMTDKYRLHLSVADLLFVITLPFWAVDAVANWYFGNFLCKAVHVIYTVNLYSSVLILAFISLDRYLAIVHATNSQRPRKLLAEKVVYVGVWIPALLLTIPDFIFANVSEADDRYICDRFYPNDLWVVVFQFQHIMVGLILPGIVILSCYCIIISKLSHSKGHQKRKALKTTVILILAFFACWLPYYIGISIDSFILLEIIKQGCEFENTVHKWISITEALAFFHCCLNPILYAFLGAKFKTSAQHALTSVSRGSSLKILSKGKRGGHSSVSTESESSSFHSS", "test": "CXCR4 internalization and co-localization in pDC (microscopy)", "type": "cell-based", "settings": "cells incubated with CB, compared to untreated cells", "description": "as §1, with “Reconvolution overlays: 2D projections of the maximum intensity pixels along the Z-axis.” left out\nIn other cases, cells were cultured overnight in media alone then were washed in ice-cold PBS-BSA 0.2% and stained with CXCR4 antibody (R&D Systems) for 1 hour at 4° C. […] Data are expressed as the mean percentage ±SEM mean channel fluorescence intensity (MFI) values for residual surface expression and intracellular staining. […]\n7 pictures were taken from each slide for each Z section framing the nucleus. Quantification of the colocalization in the cytoplasm of purified pDC using Mander's Coefficient was obtained after analyze by JACoP pluging in ImageJ. […]"}, "[6]": {"test_system": "HIV or LPS stimulated monocytes", "test": "IFN-γ mRNA in monocytes stimulated with HIV or LPS (RT-qPCR)", "type": "cell-based", "settings": "RT-qPCR normalized to RPL13A", "description": "Data shown are representative of two independent experiments.\nMonocytes were pre-incubated with clobenpropit (CB), IT1t or chloroquine before being activated by HIV and LPS. IFN-γ levels were measured by RT-qPCR and normalized to RPL13A mRNA expression."}, "[7]": {"test_system": "pristane-induced SLE in Balb/c mice", "test": "Pristane-induced systemic lupus erythematosus (SLE) model in Balb/c mice", "type": "in vivo, mouse", "settings": "3, 10, 30 mg/kg IP QD", "description": "Receive and quarantine (SOP 560) 70 female Balb/C (20-25 g) mice and house in filter-topped cages supplied with autoclaved bedding.\nThe animals are weighed, ear tagged for individual identification and randomly assigned to 8 treatment groups of 8 animals each and two groups of 3 animals (for pre-tolerance at 30 mg/kg of survival).\nThe test items compounds clobenpropit (CB) and IT1t are stored at 4° C.\nMouse weights are recorded twice a week, and daily observations for clinical signs.\nCollected sera are stored at −80° C. for measurements of autoantibody on weeks 4, 8 and 10. (Predose will kept at −80° C. for potential use). Anti-dsDNA level is a standard screening readout for identifying efficacy of test compounds in a SLE model.\nMeasurements: weeks 4, 8, 10: (1) autoantibody (anti-dsDNA), collagen and cytokines TNFα, IL-6 and TRAIL by ELISA and (2) ANA antibody by IFA."}, "[8]": {"test_system": "human primary PBMC"}, "[9]": {"molecular_target": "T1, CXCR4"}, "[10]": {"test_system": "pDC", "test": "Cytotoxicity of compounds on cultured pDC", "settings": "10 μM"}},
  "data": [
    {"molecule": "NC(=NCc1ccc(Cl)cc1)SCCCc1cnc[nH]1", "note": "[Clobenpropit, clobenpropit]", "values": [
      {"measurement": "EC50", "setting": "[1]", "result": "24 ± 2", "unit": "µM"},
      {"measurement": "IFN-α production by Flu-stimulated pDC from H4R KO mice", "setting": "[2]", "result": "inhibited"},
      {"measurement": "IFN-α production by Flu-stimulated pDC from wild type mice", "setting": "[2]", "result": "inhibited"},
      {"measurement": "IFN-α, IFN-β and IFN-λ2/3 protein production in bronchioalveolar lavage (BAL) fluid", "setting": "[3]", "result": "strong reduction"},
      {"measurement": "TRAIL localization to the cell membrane in HIV-stimulated pDC", "setting": "[4]", "result": "significantly inhibited"},
      {"measurement": "intracellular / extracellular CXCR4 in pDC", "setting": "[5]", "result": "most of CXCR4 was detected intracellularly"},
      {"measurement": "IFN-γ expression by HIV or LPS stimulated monocytes", "setting": "[6]", "result": "inhibit"},
      {"measurement": "symptoms of pristane-Induced Systemic Lupus Erythematosus", "setting": "[7]", "result": "reduce symptoms"},
      {"measurement": "body weight during the study", "setting": "[7]; compared to dose started date", "result": "no loss of body weight"},
      {"measurement": "ds-DNA level", "setting": "[7]; compared to group 1 (vehicle)", "result": "inhibition"},
      {"measurement": "Therapeutic index (Ratio TC50/EC50)", "setting": "[8]", "result": 17.4},
      {"measurement": "effect of CXCR4 silencing on the inhibitory effect", "setting": "[9]; pDC activated by a CCR5-tropic (R5) HIV-1 and Flu", "result": "blocked"},
      {"measurement": "effect of CXCR4 gene silencing on the inhibitory effect on type I IFN and TRAIL", "setting": "[9]; pDC stimulated by CXCR4-tropic HIV-1", "result": "suppressed"},
      {"measurement": "cytotoxicity on purified pDC", "setting": "[10]", "result": "no cytotoxic effect"}
    ]}
  ]
}
